Series [1] deals with HeLa. Description: Induction of apoptosis in human HeLa cells at 200 to 400 uM after 48 hrs by Annexin V/propidium iodide staining based flow cytometry. The format is functional, cell-based. (In general: Flow cytometry measures light scatter and fluorescence of single cells or particles in a stream.)
The target of series [2] is T1, Pyruvate kinase PKM (Homo sapiens, UniProt P14618). Put plainly: Binding affinity to PKM2 in human HeLa cells at 100 uM after 6 hrs in presence of biotin by Western blot analysis. The format is cell-based. Background: In western blotting, separated proteins are transferred to a membrane and probed.
Target sequence in this assay (P14618 2-531 limits assumed): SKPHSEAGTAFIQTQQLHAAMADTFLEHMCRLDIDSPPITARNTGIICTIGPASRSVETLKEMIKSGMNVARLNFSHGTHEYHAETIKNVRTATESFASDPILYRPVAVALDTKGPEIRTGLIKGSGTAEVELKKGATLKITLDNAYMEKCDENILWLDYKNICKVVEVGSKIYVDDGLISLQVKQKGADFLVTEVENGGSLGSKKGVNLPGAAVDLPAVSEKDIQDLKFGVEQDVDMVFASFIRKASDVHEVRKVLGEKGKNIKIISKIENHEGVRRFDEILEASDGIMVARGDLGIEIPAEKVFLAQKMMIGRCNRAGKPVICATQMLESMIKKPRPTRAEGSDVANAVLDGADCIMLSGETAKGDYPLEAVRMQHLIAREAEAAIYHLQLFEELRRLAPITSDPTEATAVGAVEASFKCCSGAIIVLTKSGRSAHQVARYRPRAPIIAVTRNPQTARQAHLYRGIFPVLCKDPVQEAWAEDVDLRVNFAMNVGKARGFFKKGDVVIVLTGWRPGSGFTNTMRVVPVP
Series [3] addresses T1, Pyruvate kinase PKM. Description: Binding affinity to PKM2 in human MCF7 cells at 100 uM after 6 hrs by co-immunoprecipitation based Western blot analysis. The format is cell-based.
Target sequence in this assay (P14618 2-531 limits assumed): as above
Series [4] is described as follows: Stability in culture medium at 200 uM after 6 hrs by HPLC analysis (reference value: 100%). The format is physicochemical. The settings on record: read-out: Stability.
The target in series [5] is T1, Pyruvate kinase PKM. Description: Binding affinity to PKM2 in human A549 cells at 100 uM after 6 hrs by co-immunoprecipitation based Western blot analysis. The format is cell-based.
Target sequence in this assay (P14618 2-531 limits assumed): as above
Series [6] concerns HeLa. Put plainly: Cell cycle arrest in human HeLa cells assessed as accumulation at G1 phase at 400 uM after 48 hrs by […]propidium iodide staining based flow cytometry (reference value: 66.69%). The format is functional.
Series [7] addresses T1, Pyruvate kinase PKM. Put plainly: Binding affinity to PKM2 in human HeLa cells at 100 uM after 6 hrs by co-immunoprecipitation based Western blot analysis. The format is cell-based.
Target sequence in this assay (P14618 2-531 limits assumed): as above
A short description of series [8]: Stability in human HeLa cells at 200 uM after 12 hrs by HPLC analysis (reference value: 100%). The format is ADME, cell-based. The note with it: read-out: Stability.
A short description of series [9]: Stability in human HeLa cells at 200 uM after 3 hrs by HPLC analysis (reference value: 100%). The format is ADME, cell-based. The note with it: read-out: Stability.
The test system of series [10] is HeLa. Description: Cell cycle arrest in human HeLa cells assessed as accumulation at G2 phase at 200 uM after 48 hrs by […]propidium iodide staining based flow cytometry (reference value: 7.91%). The format is functional.
Series [11] has as its system HeLa. Description: Cell cycle arrest in human HeLa cells assessed as accumulation at S phase at 200 uM after 48 hrs by […]propidium iodide staining based flow cytometry (reference value: 25.41%). The format is functional.
A short description of series [12]: Stability in culture medium at 200 uM after 12 hrs by HPLC analysis (reference value: 100%). The format is physicochemical. The note with it: read-out: Stability.
Series [13] is described as follows: Stability in human HeLa cells at 200 uM after 24 hrs by HPLC analysis (reference value: 100%). The format is ADME, cell-based. The settings on record: read-out: Stability.
The test system of series [14] is HeLa. Description: Antiproliferative activity against human HeLa cells at 50 to 400 uM after 48 hrs by MTS assay. The format is functional, cell-based.
Series [15] deals with HeLa. Description: Cell cycle arrest in human HeLa cells assessed as accumulation at S phase at 400 uM after 48 hrs by […]propidium iodide staining based flow cytometry (reference value: 25.41%). The format is functional.
A short description of series [16]: Stability in culture medium at 200 uM after 3 hrs by HPLC analysis (reference value: 100%). The format is physicochemical. The note with it: read-out: Stability.
A short description of series [17]: Stability in human HeLa cells at 200 uM after 6 hrs by HPLC analysis (reference value: 100%). The format is ADME, cell-based. The settings on record: read-out: Stability.
The target of series [18] is T1, Pyruvate kinase PKM. Description: Binding affinity to PKM2 in human HeLa cell lysates at 200 uM after 6 hrs by silver staining based LC-MS/MS pull down analysis.
Target sequence in this assay (P14618 2-531 limits assumed): as above
For series [19], the system named is HeLa. Put plainly: Cell cycle arrest in human HeLa cells assessed as accumulation at G2 phase at 400 uM after 48 hrs by […]propidium iodide staining based flow cytometry (reference value: 7.91%). The format is functional.
For series [20], the system named is HeLa. Put plainly: Cell cycle arrest in human HeLa cells assessed as accumulation at G1 phase at 200 uM after 48 hrs by […]propidium iodide staining based flow cytometry (reference value: 66.69%). The format is functional.
A short description of series [21]: Stability in culture medium at 200 uM after 24 hrs by HPLC analysis (reference value: 100%). The format is physicochemical. The settings on record: read-out: Stability.
For series [22], the species on record is Homo sapiens. Description: Selectivity ratio of IC50 for recombinant human N-terminal His6/SUMO-tagged PKM1 expressed in Escherichia coli BL21 to IC50 for recombinant human N-terminal His6/SUMO-tagged PKM2 expressed in Escherichia coli BL21.
In series [23] the target is T1, Pyruvate kinase PKM. Put plainly: Inhibition of recombinant human N-terminal His6/SUMO-tagged PKM1 expressed in Escherichia coli BL21 using PEP as substrate incubated for 30 mins in presence of ADP by spectrophotometric based LDH enzyme coupled assay.
Target sequence in this assay (P14618 whole entry): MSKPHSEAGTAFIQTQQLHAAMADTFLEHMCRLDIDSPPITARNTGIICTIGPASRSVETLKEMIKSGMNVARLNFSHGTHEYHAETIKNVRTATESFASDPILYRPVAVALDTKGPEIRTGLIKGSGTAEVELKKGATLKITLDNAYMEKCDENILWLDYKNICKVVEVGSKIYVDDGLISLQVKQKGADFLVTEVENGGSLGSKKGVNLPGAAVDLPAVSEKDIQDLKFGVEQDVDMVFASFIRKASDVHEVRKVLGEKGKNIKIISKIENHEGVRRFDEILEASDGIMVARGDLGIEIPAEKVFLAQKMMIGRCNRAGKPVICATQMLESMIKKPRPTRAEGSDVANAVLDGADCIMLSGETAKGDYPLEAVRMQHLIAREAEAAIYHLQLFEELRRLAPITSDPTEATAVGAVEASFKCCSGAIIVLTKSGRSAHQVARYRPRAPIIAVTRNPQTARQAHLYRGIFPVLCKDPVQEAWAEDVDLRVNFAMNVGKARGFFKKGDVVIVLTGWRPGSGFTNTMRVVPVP
Series [24] addresses T1, Pyruvate kinase PKM. Put plainly: Inhibition of recombinant human N-terminal His6/SUMO-tagged PKM2 expressed in Escherichia coli BL21 using PEP as substrate incubated for 30 mins in presence of ADP by spectrophotometric based LDH enzyme coupled assay.
Target sequence in this assay (P14618 whole entry): as above
Series [25] has as its target T1, Pyruvate kinase PKM. Description: Inhibition of PKM2 in human HeLa cells assessed as reduction in cellular glycolytic rate after 6 hrs. The format is cell-based.
Target sequence in this assay (P14618 2-531 limits assumed): as the sequence (P14618 2-531 limits assumed) above
In series [26] the test system is HeLa. Put plainly: Activation of MEK/ERK/PIN1 pathway in human HeLa cells assessed as increase in phosphorylated ERK1/2 expression at 100 uM after 2 to 8 hrs by Western blot analysis. The format is cell-based.
Series [27] concerns HeLa. Put plainly: Down regulation of cyclin B expression level in human HeLa cells at 200 to 400 uM by Western blot analysis. The format is functional, cell-based.
Series [28] deals with HeLa. Description: Induction of apoptosis in human HeLa cells assessed as increase in Bax/Bcl-2 expression level at 100 to 400 uM by Western blot analysis. The format is functional, cell-based.
In series [29] the target is L-lactate dehydrogenase (Homo sapiens, UniProt V9HWB9). Description: Inhibition of LDH (unknown origin) assessed as reduction in NADH oxidation at 200 uM after 30 mins. The note with it: 0.5 h.
In series [30] the test system is HeLa. Description: Activation of MEK/ERK/PIN1 pathway in human HeLa cells assessed as increase in MEK protein expression at 100 uM after 2 to 8 hrs by Western blot analysis. The format is cell-based.
For series [31], the system named is HeLa. Description: Activation of MEK/ERK/PIN1 pathway in human HeLa cells assessed as increase in PIN1 expression at 100 uM after 2 to 8 hrs by Western blot analysis. The format is cell-based.
Series [32] relates to HeLa. Description: Effect on Glut1 expression level in human HeLa cells at 100 to 400 uM after 6 hrs by Western blot analysis. The format is functional, cell-based.
Series [33] deals with HeLa. Description: Induction of apoptosis in human HeLa cells assessed as increase in cleaved caspase 3 expression level at 100 to 400 uM by Western blot analysis. The format is functional, cell-based.
For series [34], the system named is HeLa. Description: Down regulation of CDK1 expression level in human HeLa cells at 200 to 400 uM by Western blot analysis. The format is functional, cell-based.

Molecules are shown by their SMILES. The source made the active and inactive calls. The calls are words filed in the database; no cut-off is given here.

As for `O=C(CCCC[C@@H]1SC[C@@H]2NC(=O)N[C@@H]21)NCCOCCOCCNC(=O)COc1ccc(-c2cc(=O)c3c(O)c(O)c(O)cc3o2)cc1`, the outcome in [1], in series [3], in [5], in [7], in series [14] and in series [18] was Active. For the same molecule, the outcome in [2] was inactive. The remaining at 6 h, 200 µM in [4] stood at 87%; in series [17] it was 93%. Besides, the Activity turned out to be 47.56% in series [6]; 11.51% in series [10]; 25.44% in [11]; 36.92% in series [15]; 15.52% in [19]; 63.05% in [20]. For the same molecule, the results for the remaining at 12 h, 200 µM in series [8] and in series [12] were 36% and 54%, respectively. Besides, the remaining at 3 h, 200 µM in [9] was determined as 98%; in series [16], 89%. Moreover, the remaining at 24 h, 200 µM in series [13] amounted to 29%; in [21], 52%.
As to `Cc1ccc(C)n1-c1ccc(O)c(C(=O)O)c1`, the Ratio IC50 in [22] stood at 8. Besides, the values for the IC50 in [23] and in series [24] were 100 µM and 12.5 µM, respectively.
For the molecule `O=C(O)[C@H]1O[C@@H](Oc2cc3oc(-c4ccc(O)cc4)cc(=O)c3c(O)c2O)[C@H](O)[C@@H](O)[C@@H]1O`, the inhibition entry in [25] was “Dose-dependent effect”.
Turning to `O=c1cc(-c2ccc(O)cc2)oc2cc(O)c(O)c(O)c12` [SCUTELLAREIN], the outcome in [1], in [26], in series [27], in series [28], in series [30] and in [14] was Active. For the same molecule, the outcome in series [31], in series [33] and in series [34] was Active. Moreover, the Activity in [6] was determined as 51.91%; in [10], 12.55%; in series [11] it was 25.34%; in series [15], 31.89%; in series [19], 16.19%; in series [20], 62.11%. Besides, the Ratio IC50 in series [22] amounted to 8. Moreover, in series [29], the “inhibition (INH)” value was “Not Active”. For the same molecule, the IC50 in series [23] was 100 µM; in series [24], 12.5 µM. Further, in [25], the inhibition result was “Dose-dependent effect”. For the same molecule, the result in [32] was inactive.
Consider `CC(C)=CC[C@@H](O)C1=CC(=O)c2c(O)ccc(O)c2C1=O` [SHIKONIN], for which, in series [22], the Ratio IC50 stood at 20. The IC50 in series [23] was determined as 10 µM; in series [24], 0.5 µM.
Take `O=C1N[C@H]2[C@H](CS[C@H]2CCCCC(=O)Oc2ccc(-c3cc(=O)c4c(O)c(O)c(O)cc4o3)cc2)N1`: the remaining at 6 h, 200 µM in [4] turned out to be 97%; in series [17], 85%. Besides, the values for the remaining at 12 h, 200 µM in series [8] and in series [12] were 37% and 50%, respectively. In addition, the remaining at 3 h, 200 µM in [9] worked out at 99%; in series [16], 98%. Besides, the results for the remaining at 24 h, 200 µM in series [13] and in series [21] were 37% and 49%, respectively. Besides, the result in [14] and in series [18] was Active.
With `NCCOCCOCCNC(=O)CCCC[C@@H]1SC[C@@H]2NC(=O)N[C@@H]21`, the result in [18] was Active.

One may read the IC50 as the point on the concentration scale where inhibition reaches its midpoint.

Source of the values: ChEMBL document CHEMBL4177700, “Scutellarin inhibits Hela cell growth and glycolysis by inhibiting the activity of pyruvate kinase M2” (Bioorg Med Chem Lett, 2017).
